Data reported in patent US20080287445A1, “Prokineticin 2 receptor antagonists” (priority 2005, published 2008).
Values joined by “and” are separate entries in the source; they are usually repeats but may differ in a detail not shown here. Equal entries are not always repeated.

Biological target: T1, GPR73 (prokineticin 1 receptor) (Homo sapiens, UniProt Q8TCW9)
T1 construct: expressed in transfected cells; host or cells: HEK 293
Assay: PK1 functional assay: Ca2+ mobilization screening for PK1 antagonists on the FLIPR
Type: cell-based
Conditions: HEK 293 GPR73 cells, multiple values = multiple testing; for inhibition at 10 µM: HEK293, 10 μM compound, read-out: Ca^2+ Mobilization % Inh @ 10 μM; for IC50: PK1 ligand preparation at its EC50, read-out: Ca^2+ Mobilization IC50; for Ca^2+ Mobilization % Inh @ 10 μM: 10 μM compound
In short: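 HEK293 cells expressing human GPR73 were loaded with Calcium Plus dye, then on FLIPR given compound for 4 min 15 s before PK1 ligand at its predetermined EC50. Baseline-subtracted fluorescence over 1 min 45 s gave percent inhibition versus maximal signal; IC50 fitted.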

T1 sequence (Q8TCW9 whole entry, species assumed): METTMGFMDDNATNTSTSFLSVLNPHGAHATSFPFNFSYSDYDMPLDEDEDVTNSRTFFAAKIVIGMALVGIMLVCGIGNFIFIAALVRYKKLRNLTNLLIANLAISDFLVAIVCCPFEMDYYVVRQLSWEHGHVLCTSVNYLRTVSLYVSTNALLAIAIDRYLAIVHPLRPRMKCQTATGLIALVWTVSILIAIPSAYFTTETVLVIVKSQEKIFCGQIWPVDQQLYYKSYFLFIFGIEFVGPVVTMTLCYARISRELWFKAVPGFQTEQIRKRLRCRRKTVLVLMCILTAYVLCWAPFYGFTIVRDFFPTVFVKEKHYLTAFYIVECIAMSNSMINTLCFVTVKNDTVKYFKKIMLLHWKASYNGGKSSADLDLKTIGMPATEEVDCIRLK

| Structure (SMILES) | inhibition at 10 µM | IC50 | Ca^2+ Mobilization % Inh @ 10 μM |
| --- | --- | --- | --- |
| COc1ccc(Cn2c(NCc3cnc(C)cc3C)nc(=O)n(Cc3ccc(OC)c(F)c3)c2=O)cc1 [Cpd 218] | 94% | 104 nM | – |
| Cc1cc(C)c(CNc2nc(=O)n(Cc3ccc4c(c3)OCO4)c(=O)n2Cc2ccc(OC(F)F)cc2)c(N)n1 [Cpd 219] | 94% | 136 nM and 158 nM | 97% |
| COc1ccc(Cn2c(NCc3c(C)cc(C)nc3N)nc(=O)n(Cc3ccc4c(c3)OCO4)c2=O)cc1 [Cpd 220] | 98% | 43 nM | – |
| Cc1cc(C)c(CNc2nc(=O)n(Cc3ccc4c(c3)nnn4C)c(=O)n2Cc2ccc(OC(F)F)cc2)c(N)n1 [Cpd 221] | 98% | 45 nM and 72 nM | 96% |
| COc1ccc(Cn2c(NCc3c(C)cc(C)nc3N)nc(=O)n(Cc3ccc4c(c3)nnn4C)c2=O)cc1 [Cpd 222, 6-[(2-Amino-4,6-dimethyl-pyridin-3-ylmethyl)-amino]-1-(4-methoxy-benzyl)-3-(1-methyl-1H-benzotriazol-5-ylmethyl)-1H-[1,3,5]triazine-2,4-dione] | 98% | 60 nM | – |
| COc1ccc(Cn2c(CCc3cccc(N)n3)cc(=O)n(Cc3ccc(OC)cc3)c2=O)cc1 [Cpd 223, 6-[2-(6-Amino-pyridin-2-yl)-ethyl]-1,3-bis-(4-methoxy-benzyl)-1H-pyrimidine-2,4-dione] | 53% | 5680 nM | – |
| COCCCCCn1c(NCc2c(C)cc(C)nc2N)nc(=O)n(Cc2ccc(OC)cc2)c1=O [Cpd 224, 6-[(2-Amino-4,6-dimethyl-pyridin-3-ylmethyl)-amino]-3-(4-methoxy-benzyl)-1-(5-methoxy-pentyl)-1H-[1,3,5]triazine-2,4-dione] | 97% | 7 nM and 11 nM | – |
| COc1ccc(Cn2c(OC(C)c3ccnc(N)c3)cc(=O)n(Cc3ccc(OC)cc3)c2=O)cc1 (stereo not drawn) [Cpd 225] | 68% | 3780 nM | – |
| Cc1cc(C)[n+]([O-])c(N)c1CNc1nc(=O)n(Cc2ccc3c(c2)CCO3)c(=O)n1Cc1ccc2c(c1)CCO2 [Cpd 226, 6-[(2-Amino-4,6-dimethyl-1-oxy-pyridin-3-ylmethyl)-amino]-1,3-bis-(2,3-dihydro-benzofuran-5-ylmethyl)-1H-[1,3,5]triazine-2,4-dione] | 85% | 922 nM | – |
| Cc1cc(C)c(CNc2nc(=O)n(Cc3ccc4[nH]ccc4c3)c(=O)n2Cc2ccc(OC(F)F)cc2)cn1 [Cpd 227] | 44% | > 10000 nM | – |
| Nc1ncccc1CNc1nc(=O)n(Cc2ccc3[nH]ccc3c2)c(=O)n1Cc1ccc(OC(F)F)cc1 [Cpd 228] | 63% | 3400 nM | – |
| COc1ccc(Cn2c(NCc3cnc(C)cc3C)nc(=O)n(Cc3ccc4[nH]ccc4c3)c2=O)cc1 [Cpd 229] | 41% | > 10000 nM | – |
| COc1ccc(Cn2c(NCc3cccnc3N)nc(=O)n(Cc3ccc4[nH]ccc4c3)c2=O)cc1 [Cpd 230] | 66% | 2750 nM | – |
| COc1ccc(Cn2c(NCc3cccnc3N)nc(=O)n(Cc3ccc(Cl)cc3)c2=O)cc1 [Cpd 231] | 89% | 245 nM | – |
| COc1ccc(Cn2c(OCc3ccnc(N)n3)cc(=O)n(Cc3ccc(OC)cc3)c2=O)cc1 [Cpd 232] | 33% | > 10000 nM | – |
| Cc1cc(C)[n+]([O-])c(N)c1CNc1nc(=O)n(Cc2ccc3c(c2)CCO3)c(=O)n1Cc1ccc(OC(F)F)cc1 [Cpd 233, 6-[(2-Amino-4,6-dimethyl-1-oxy-pyridin-3-ylmethyl)-amino]-1-(4-difluoromethoxy-benzyl)-3-(2,3-dihydro-benzofuran-5-ylmethyl)-1H-[1,3,5]triazine-2,4-dione] | 96% | 69 nM and 130 nM | 97% |
| COc1ccc(Cn2c(NC(C)c3ccccn3)nc(=O)n(Cc3ccc(OC)cc3)c2=O)cc1 (stereo not drawn) [Cpd 234] | 66% | 2590 nM | – |
| COc1ccc(Cn2c(NCc3ccc(C(F)(F)F)cn3)nc(=O)n(Cc3ccc(OC)cc3)c2=O)cc1 [Cpd 235] | 98% | 85 nM | – |
| COc1ccc(Cn2c(NCc3ncccc3C(F)(F)F)nc(=O)n(Cc3ccc(OC)cc3)c2=O)cc1 [Cpd 236] | 64% | 1270 nM | – |

| Structure (SMILES) | inhibition at 10 µM | IC50 | Ca^2+ Mobilization % Inh @ 10 μM |
| --- | --- | --- | --- |
| COc1ccc(Cn2c(NCc3cc(C(F)(F)F)ccn3)nc(=O)n(Cc3ccc(OC)cc3)c2=O)cc1 [Cpd 237] | 69% | 1680 nM | – |
| Nc1ncccc1CNc1nc(=O)n(Cc2ccc3snnc3c2)c(=O)n1Cc1ccc2c(c1)CCO2 [Cpd 242] | 95% | 251 nM | – |
| Cc1cc(C)c(CNc2nc(=O)n(Cc3ccc4snnc4c3)c(=O)n2Cc2ccc3c(c2)CCO3)cn1 [Cpd 243] | 75% | 914 nM | – |
| Cn1nnc2cc(Cn3c(=O)nc(NCc4cccnc4N)n(Cc4ccc5c(c4)CCO5)c3=O)ccc21 [Cpd 244] | 94% | 121 nM | – |
| Cc1cc(C)c(CNc2nc(=O)n(Cc3ccc4c(c3)nnn4C)c(=O)n2Cc2ccc3c(c2)CCO3)cn1 [Cpd 245] | 45% | > 10000 nM | – |
| COc1ccc(Cn2c(NCc3c(N)nc4c(c3-c3ccccc3)CCC4)nc(=O)n(Cc3ccc(OC)cc3)c2=O)cc1 [Cpd 246] | 48% | 8320 nM | – |
| COc1ccc(Cn2c(NCc3cnc(C)cn3)nc(=O)n(Cc3ccc(OC)cc3)c2=O)cc1 [Cpd 247] | 100% | 27 nM and 30 nM | 97% |
| COc1ccc(Cn2c(NCc3cnc(C)nc3N)nc(=O)n(Cc3ccc(OC)cc3)c2=O)cc1 [Cpd 248] | 103% | 34 nM | – |
| COc1ccc(Cn2c(SCc3cccnc3N)cc(=O)n(Cc3ccc(OC)cc3)c2=O)cc1 [Cpd 249] | 90% | 194 nM | – |
| COc1ccc(Cn2c(NCc3c(COCc4ccccc4)cc(C)nc3N)nc(=O)n(Cc3ccc(OC)cc3)c2=O)cc1 [Cpd 250] | 48% | 8630 nM | – |
| Cc1cc(CO)c(CNc2nc(=O)n(Cc3ccc4c(c3)CCO4)c(=O)n2Cc2ccc(OC(F)F)cc2)c(N)n1 [Cpd 251] | 93% | 225 nM | – |
| COCCCCCn1c(=O)nc(NCc2c(C)cc(C)nc2N)n(Cc2ccc(OC)cc2)c1=O [Cpd 252, 6-[(2-Amino-4,6-dimethyl-pyridin-3-ylmethyl)-amino]-1-(4-methoxy-benzyl)-3-(5-methoxy-pentyl)-1H-[1,3,5]triazine-2,4-dione] | 71% | 1350 nM | – |
| COCCCCCn1c(NCc2c(C)cc(C)nc2N)nc(=O)n(Cc2ccc(Cl)cc2)c1=O [Cpd 253] | 97% | 9 nM | – |
| COCCCCCn1c(NCc2c(C)cc(C)nc2N)nc(=O)n(Cc2ccccc2)c1=O [Cpd 254] | 96% | 98 nM | – |
| COCCCCCn1c(NCc2c(C)cc(C)nc2N)nc(=O)n(Cc2ccc(Cl)c(Cl)c2)c1=O [Cpd 255] | 99% | 78 nM | – |
| COCCCCCn1c(NCc2cccnc2N)nc(=O)n(Cc2ccc(Cl)cc2)c1=O [Cpd 256] | 99% | 118 nM | – |
| COCCCCCn1c(NCc2cccnc2N)nc(=O)n(Cc2ccc(OC(F)F)cc2)c1=O [Cpd 257] | 76% | 1520 nM | – |
| Cc1cnc(CNc2nc(=O)n(Cc3ccc4c(c3)CCO4)c(=O)n2Cc2ccc(OC(F)F)cc2)cn1 [Cpd 261] | 87% | 772 nM | – |
